The test system of experiment [1] is IL-8 release, 16HBE-16o^− cells. As to the kind of experiment: IL-8 release (ELISA) in IL-1β stimulated 16HBE-16o− cells. The settings on record: Homo sapiens, 1 ng/ml IL-1β, read-out: EC50 for inhibition of the release of IL-8. The class given is cell-based. How it is done:
(§1) The human airway epithelial cell line A549 may be employed to study resveratrol inhibition of the release of IL-8 (interleukin 8) and GM-CSF (granulocyte macrophage-colony stimulating factor) by a 1 ng/ml stimulation with IL-1β (interleukin 1β). A549 cells, BEAS-2B cells and 16HBE-16o^− cells were stimulated with 1 ng/ml levels of IL-1β in the presence of resveratrol.
(§2) Cells, including the A549 cells, were cultured in Dulbecco's modified Eagle's medium (DMEM) 10% (v/v) fetal calf serum (FCS), 100 μg/ml penicillin and 100 μg/ml streptomycin. IL-8 release was measured by commercially available ELISA kit (R&D Systems).
For orientation: ELISA stands for enzyme-linked immunosorbent assay.

The next experiment concerns IL-8 release, A549 cells. The experiment in a line: IL-8 release (ELISA) in IL-1β stimulated A549 cells. In kind it is cell-based. To be noted: Homo sapiens, 1 ng/ml IL-1β, read-out: EC50 for inhibition of the release of IL-8. Here is the method: as §1, §2
Experiment [2] concerns CRE dependent transcription. The experiment in a line: CRE luciferase reporter in stably transfected A549 cells. In kind it is cell-based, human. Here is the method:
The expression of inflammatory genes was then evaluated in cells transformed with luciferase reporter genes containing sites for transcription factors (Tf, Tfs). The A549 cells were stably transfected by routine methods with luciferase reporters containing the transcription factors NF-κB, TRE (AP-1, TPA responsive element) and CRE (cAMP responsive element). Luciferase activity of cell lysates resuspended in […] cell lysis buffer mixed (40 mml resuspended lysate: 40 mml assay reagent) was measured using the Luciferase Assay System (Promega), with emitted light measured by a Turner DesignsTD-20/20 luminometer (Steptech Instruments Ltd., Stevenage, U.K.)

A further experiment concerns Patients with asthma. As to the kind of experiment: Oral resveratrol clinical evaluation in asthma (Example 3). In kind it is in vivo, human. To be noted: oral, 200, 2000 or 3000 mg/day, about six months. Here is the method:
Resveratrol is evaluated clinically for efficacy in treating asthma. The methods of the following references are generally used in the evaluation of asthmatic disease: Wohl et al. (2000) N. Engl. J. Med. 343(15):1113-4; Agertoft et al. (2000) N. Engl. J. Med. 343(15):1064-9. Patients with asthma are treated once or more per day with gelatin capsules containing resveratrol. Patients are divided randomly and blindly into four approximately equal groups that receive either 0 (placebo), 200, 2000, or 3000 mg/day resveratrol for about six months in oral doses of 0, 50, 500, or 750 mg administered 4 times daily for about six months. Patients are medically monitored for clinical symptoms of asthma throughout the study, including frequency and severity of acute asthma attacks. […] In addition exhaled nitric oxide (NO) and carbon monoxide (CO) levels may be measured at more frequent intervals, such as every other week. Forced expiratory volume (FEV) and forced inspiratory volume (FIV) are also evaluated to measure airway patency as a direct measure of clinical morbidity and to determine correlation the histopathologic and other indicators of clinical disease, such as exhaled NO Immunhistopathologic examination of lung tissue biopsy samples taken at the same intervals as the blood samples are also examined for histopathologic evidence of extent and histology of inflammation.

In another experiment the test system is COPD patients. As to the kind of experiment: Oral resveratrol clinical evaluation in COPD (Example 8). To be noted: oral, 200, 2000 or 3000 mg/day, about six months. In kind it is in vivo, human. How it is done: Resveratrol is evaluated clinically for efficacy in treating COPD. The study is generally patterned after the asthma studies with modifications appropriate to the clinical and histopathologic evaluation of COPD disease, and the references listed in the preceding examples may be applied as appropriate. Smokers are treated once or more per day with gelatin capsules containing resveratrol. The different populations of COPD patients are subdivided into subpopulations: emphysema patients, bronchitis patients and other COPD. Patients are divided randomly and blindly into four approximately equal groups that receive either 0 (placebo), 200, 2000, or 3000 mg/day resveratrol for about six months in oral doses of 0, 50, 500, or 750 mg administered 4 times daily for about six months.
Patients are medically monitored for clinical symptoms of COPD throughout the study, including frequency and severity of hypoxemic and respiratiry acidotic exacerbations. In addition, induced sputum samples are obtained from the patients at days 0, 30, 90, and 180 and neutrophil counts are performed and the samples are assayed for IL-8 and myeloperoxidase by routine methods. Forced expiratory volume (FEV) and forced inspiratory volume (FIV) are also evaluated to measure airway patency as a direct measure of clinical morbidity and to determine correlation the histopathologic and other indicators of clinical disease. […]

For the compound `Oc1ccc(/C=C/c2cc(O)cc(O)c2)cc1` [Resveratrol, 3,5,4′-trihydroxystilbene], the EC50 – broadly, the concentration needed to bring the measured effect to its halfway point – in experiment [1] was 8.9 ± 3.5 µM; in the experiment with IL-8 release, A549 cells it was 72 ± 11 µM; in experiment [2] (Homo sapiens, read-out: EC50 for inhibition of CRE dependent transcription) it was 30 ± 17 µM. The “extent of inhibition of CRE dependent transcription” value in experiment [2] worked out at 91%. Moreover, the “efficacy in treating asthma” value in the experiment with Patients with asthma is “effective for treating asthma”. In addition, the “efficacy in treating COPD” value in the experiment on COPD patients is recorded as “effective for treating COPD”.

Values taken from patent US6878751B1, “Administration of resveratrol to treat inflammatory respiratory disorders” (Imperial College of Science Technology and Medicine, priority 2000, dated 2005).
